Values joined by “and” are separate entries in the source; they are usually repeats but may differ in a detail not shown here. Equal entries are not always repeated. “Also recorded” adds a separate entry of the source. Where two headings read alike, the source gives them in different places.
Assays:
[1] = test system: TPA-induced H2O2 production in mouse skin; experiment: TPA-induced H2O2 production in skin of SENCAR mice; assay type: in vivo
Method: (§1) FIGS. 2A-2D. CAPE-mediated inhibition of TPA-induced oxidative processes in SENCAR mice. Mice were topically treated with 6.5 nmol CAPE 30 min prior to 6.5 nmol TPA, and this regimen was repeated 20 h later. Mice were sacrificed 1 h after the last treatment and the skin removed for determination of: (FIG. 2A) PMN infiltration (by measuring myeloperoxidase (MPO)); (FIG. 2B) H2 O2; (FIG. 2C) HMdUrd (HMdU); and (FIG. 2D) 8-OHdGua (8-OHdG), according to procedures described in the "Experimental Details" Section, infra. .quadrature., controls treated with acetone in place of CAPE and TPA; , treatment with acetone followed by TPA; .box-solid., treatment with CAPE followed by TPA. Results are expressed as mean ± SE (bars) from two experiments (2 mice/experiment) in the CAPE series. Data for acetone (ACT)- and TPA-treated mean values were collected from over 20 experiments.
(§2) C) MPO, H2 O2, and Oxidized DNA Bases. SENCAR mice were pretreated with CAPE for 30 min; then 6.5 nmol (4 μg) TPA/mouse topically applied to the dorsal skin. After 20 h, the CAPE and TPA treatment (1x) was repeated (2x treatment). One h after the second treatment, the mice were sacrificed by cervical dislocation, and 12.5-mm punches were obtained to be used separately for MPO and H2 O2 determinations. The remainder of the treated mouse skin or the combined skins from two mice were used for separation of epidermal cells. This was done by heating the skin at 55° C. for 30 s followed by rapid immersion into an ice-cold water bath (45). After the epidermis was scraped off, the presence of oxidized DNA base derivatives was measured in the epidermal DNA. All of these end points were analyzed by published procedures and are briefly described below.
Punches used for H2 O2 determination were immediately minced with scissors in cold 50 mM phosphate buffer, pH 7.0, containing 10 mM azide that is needed for inhibition of catalase. They were then homogenized, and centrifuged at 4° C. and the supernatants were stored at -80° C. for up to 1 week. H2 O2 was measured in freshly thawed supernatants using horseradish peroxidase-mediated oxidation of phenol red (21), and the results are expressed as nmol H2 O2 /cm^2 /10-min incubation. Although organic hydroperoxides also can be generated under these conditions (45), we find that H2 O2 constitutes a great majority of the oxidants generated because 60-85% of the oxidants produced are catalase inhibitable (21).
(§3) ^a Mice were treated as described in the legend to FIG. 2, except tha

[2] = test system: untransformed rat 6 cells; settings: cited from earlier work
[3] = test system: bovine lens (opacity); experiment: TPA-induced opacity of bovine lens; assay type: cell-based; settings: 0.1 μM TPA, 24 h
Method: FIGS. 5A-5C. CAPE-mediated protection of bovine lens from TPA-induced opacity. Lenses were incubated with artificial aqueous humor only (FIG. 5A); incubated with 0.1 μM TPA (FIG. 5B); and pretreated with 1 μM CAPE for 30 min followed by 0.1 μM TPA (FIG. 5C) for 24 h. After incubation, the lenses were photographed against 3-mm grids.
B) Bovine Lens Bovine lenses were obtained from a New Jersey slaughterhouse 3 h after the animals were sacrificed. Lenses were immediately immersed in artificial aqueous humor (AAH; 130 mMNaCl, 5 mMKCl, 1 mM CaCl2, 0.5 mM MgCl2, 10 mM NaHCO3, 10 mM 4-(2-hydroxyethyl)-1-piperazineethanesulfonic acid (pH 7.3), and 2.5 mM D-glucose). Each of the bovine lenses in AAH (about 15 ml/lens) supplemented with 10 mM azide (a catalase inhibitor) was incubated with various amounts (0-1 μM) TPA at 37° C. for 24 h in the presence or absence of CAPE (1 μM), as described for use of other chemopreventive agents (31). For comparison, the lenses were also incubated with glucose (2.5 mM)/glucose oxidase (25 μM), a H2 O2 -generating system.
In some experiments, at the end of incubation [lenses in (a) AAH only (controls), (b) AAH+0.1 μM TPA, and (c) AAH+1 μM CAPE (30 min)+0.1 μM TPA] at 37° C. for 24 h, the lenses were photographed against a 3-mm grid.

[4] = test system: TPA-induced PMN infiltration in mouse skin (MPO); experiment: TPA-induced PMN infiltration (MPO) in dorsal skin of SENCAR mice; assay type: in vivo
Method: as §1
(§4) A) Treatment of Animals and Assays. Female SENCAR (6-8 weeks old) and CD-1 mice (about 7 weeks old) were purchased from Biological Testing, National Cancer Institute (Frederick, Md.) and from Charles River Laboratory (Stone Ridge, N.Y.), respectively. The mice were acclimated for at least 1 week before use. They were subjected to a 12-h light/12-h dark cycle, housed at 20°±2° C. in a room with 10 cycles of air exchanges/h, given food and water ad libitum, and observed for any indication of ill health. Before topical application of any test agents, their backs were shaved and only those without hair growth after 48 h were used.
as §2
The assay for MPO was carried out according to the procedure of Metcalf et al. (53) with some modifications (20), and the results are expressed as units/cm^2, where a unit is defined as that degrading 1 μmol H2 O2 /min at 25° C. The presence of MPO in the mouse ears was measured in the homogenates. They were prepared by mincing the ears and homogenizing them in an ice-cold water bath with a polytron homogenizer, either twice for 20 s each or three times for 10 s each. Each homogenate was analyzed in duplicate and the results are expressed as mean MPO (units/mg protein) ±SE for each of the homogenates.
as §3

[5] = test system: transformed cells; settings: cited from earlier work
[6] = test system: HIV integrase; settings: cited from earlier work
[7] = test system: NIH 10T1/2, Ltk^- and rat 6 cells transformed with T24 oncogene; settings: cited from earlier work
[8] = test system: ornithine decarboxylase (ODC); experiment: TPA-induced ornithine decarboxylase (ODC) in CD-1 mice; assay type: in vivo; settings: CAPE 1 μmol, TPA 5 nmol, (76)
Method: as §4

[9] = test system: normal tissue; settings: cited from earlier work
[10] = test system: ornithine decarboxylase (ODC); experiment: TPA-induced ornithine decarboxylase (ODC) in SENCAR mice; assay type: in vivo; settings: CAPE 10 μmol, TPA 4 nmol
Method: as §4

[11] = test system: mouse skin; settings: cited from earlier work
[12] = test system: bovine lens (opacity); settings: 1 μM TPA; cited from earlier work
[13] = test system: TPA-induced cataracts in eyes of rabbits; experiment: TPA-induced cataracts in rabbits in vivo; set-up: species or system white New Zealand rabbits; settings: daily TPA-containing drops, 6 week period

O=C(/C=C/c1ccc(O)c(O)c1)OCCc1ccccc1 [CAPE, Caffeic acid phenethyl ester]
H2O2 ([1]; CAPE 6.5 nmol then TPA 6.5 nmol, 2x, (5 experiments), SE 2.2 on next line): 15.7 nmol/cm^2 skin | inhibition of TPA-induced H2O2 formation ([1]; CAPE 6.5 nmol, TPA 6.5 nmol, 2x, SENCAR mouse skin): 86% | H2O2 ([1]; CAPE 650 nmol then TPA 6.5 nmol, 2x, (5 experiments), SE 0.6 on next line): 11.6 nmol/cm^2 skin | H2O2 levels at high dose (in words) ([1]; CAPE 650 nmol/treatment vs 6.5 nmol): further decreased | growth inhibition, untransformed rat 6 cells (in words) [2]: but not that of the untransformed rat 6 cells | prevention of lens opacification (in words) ([3]; 1 μM CAPE): almost completely prevented opacification of the lens; also recorded: suppressed formation of TPA-induced H2 O2 formation and opacification of lenses | decrease of TPA-induced PMN infiltration ([4]; CAPE 6.5 nmol 30 min before each of two TPA 6.5 nmol applications, SENCAR mouse skin): ≈ 85% and 85% | MPO ([4]; CAPE 6.5 nmol pretreatment then TPA 6.5 nmol, 2x, (4 experiments), SE 0.3 on next line): 5.9 units/cm^2 skin | MPO ([4]; CAPE 650 nmol pretreatment then TPA 6.5 nmol, 2x, (4 experiments), SE 2.0 on next line): 10.8 units/cm^2 skin | TPA-mediated PMN infiltration and formation of HMdUrd and 8-OHdGua at high dose (in words) ([4]; CAPE 650 nmol/treatment, 2x, 20 h apart, vs 6.5 nmol): this reduction was not as effective as that caused by the lower (6.5 nmol) dose of CAPE | selective toxicity (in words) [5]: selectively toxic to transformed cells but not to normal cells | HIV integrase inhibition (in words) [6]: inhibits HIV integrase | growth inhibition (in words) [7]: inhibited | inhibition of TPA-induced ODC [8]: 55% | toxicity to normal tissue (in words) [9]: not toxic to normal tissue | inhibition of TPA-induced ODC [10]: 62%

CCCCCCCCCCCCCC(=O)O[C@@H]1[C@@H](C)[C@@]2(O)[C@@H](C=C(CO)C[C@]3(O)C(=O)C(C)=C[C@@H]23)[C@@H]2C(C)(C)[C@]12OC(C)=O [TPA, 12-O-tetradecanoylphorbol-13-acetate]
H2O2 ([1]; TPA alone, 6.5 nmol, SE 0.7 on next line): 31.5 nmol/cm^2 skin | H2O2 production and oxidation of DNA bases in vivo (in words) [11]: induce H2 O2 production in mouse skin as well as cause oxidation of DNA bases in vivo | lens opacity (in words) [3]: caused opacity of the lens | MPO ([4]; TPA alone, 6.5 nmol, mean ± SE (spread on next printed line: 7.6)): 23.7 units/cm^2 skin | lens opacity (in words) [12]: even more pronounced; also recorded: causes its opacity | alteration in lens transparency (in words) [13]: failed to induce any visible alteration in the transparency of the lenses

Source: US5591773A, “Inhibition of cataract formation, diseases resulting from oxidative stress, and HIV replication by caffeic acid esters” (priority 1994, dated 1997)
